ChEMBL document CHEMBL1201862, “PubChem BioAssay data set” (2004)
The source made the active and inactive calls.

Columns and labels:
[1] = molecular target: FAD-linked sulfhydryl oxidase ALR (Homo sapiens, UniProt P55789); test: ALR-catalysed DTT oxidation blockers – biochemical, H2O2 detection, luminescence, cherry-pick, dose response (AID 493248)
[2] = tested on: Vero; test: cells; assay type: functional; conditions: Chlorocebus sabaeus
[3] = molecular target: T1, Ubiquitin-conjugating enzyme E2 N (Homo sapiens, UniProt P61088); assay type: functional;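 also: Dose-response confirmation in a TR-FRET assay detecting UBC13-driven polyubiquitin chain formation, inhibition measured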
T1 sequence (P61088 whole entry): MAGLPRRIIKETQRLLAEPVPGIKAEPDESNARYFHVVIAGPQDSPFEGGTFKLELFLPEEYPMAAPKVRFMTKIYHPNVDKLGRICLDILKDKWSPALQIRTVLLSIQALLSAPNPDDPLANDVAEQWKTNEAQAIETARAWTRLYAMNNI

[4] = molecular target: T2, Streptokinase A (Streptococcus pyogenes serotype M1, UniProt P10520); test: viability-normalized secreted streptokinase activity reduction – plasminogen activation absorbance, OD405, dose response (AID 1914); assay type: functional, Streptococcus pyogenes M1 GAS;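 also: secreted streptokinase activity via plasminogen activation per viability signal from cell pellet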
T2 sequence (P10520 whole entry): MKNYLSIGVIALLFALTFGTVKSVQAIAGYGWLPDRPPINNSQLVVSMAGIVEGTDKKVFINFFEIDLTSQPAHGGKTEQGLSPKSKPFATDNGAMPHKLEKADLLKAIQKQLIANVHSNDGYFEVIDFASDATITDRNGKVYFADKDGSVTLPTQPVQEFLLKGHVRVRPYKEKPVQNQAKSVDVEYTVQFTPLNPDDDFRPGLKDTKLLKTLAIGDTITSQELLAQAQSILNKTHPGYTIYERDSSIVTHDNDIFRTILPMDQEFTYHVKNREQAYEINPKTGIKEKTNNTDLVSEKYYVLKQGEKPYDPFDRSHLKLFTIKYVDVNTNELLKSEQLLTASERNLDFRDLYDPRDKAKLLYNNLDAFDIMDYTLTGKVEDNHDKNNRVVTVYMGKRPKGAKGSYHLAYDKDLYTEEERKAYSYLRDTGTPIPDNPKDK

[5] = tested on: Streptococcus; test: GAS UMAA2166 growth inhibition – luminescence, BacTiterGlo, counter-screen for streptokinase expression inhibitor project, dose response (AID 1915); assay type: functional, organism-based;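 also: potency for reduction of bacterial viability or growth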
[6] = tested on: Streptococcus sp. 'group A'; test: Streptococcus pyogenes SK(-)GAS viability under kanamycin – luminescence, BacTiterGlo, confirmation, counter-screen for streptokinase expression inhibitor project, dose response (AID 1900); assay type: functional, organism-based
[7] = viability of HCT116 lacking mutant beta-catenin – cell-based, human colon tumor, dose response (AID 1045); assay type: functional;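 also: HCT116 colon tumor cells with beta catenin knocked out; cells exposed to compound for 60 hours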
[8] = viability of PTEN-deleted HCT116 cells – cell-based, HCT116 PTEN knockout, dose response (AID 1047); assay type: functional;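 also: HCT116 colon tumor cells with PTEN knocked out; cells exposed to compound for 60 hours before readout; potency for loss of cell viability measured by luminescence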
[9] = Luminescence Cell-Based Dose Retest to Confirm Inhibitors of Cancer Stem Cells. [Related pubchem assays (depositor defined):AID2717, AID2721]; assay type: functional; conditions: Homo sapiens
[10] = fluconazole-exposed Candida albicans growth modulators – fluorescence, retest, confirmation (AID 2467); assay type: functional, cell-based
[11] = NIH-3T3 fibroblast cytotoxicity, dose response, cytotoxicity control, cell-based, fluorescence, Alamar Blue, secondary assay (AID 2327); assay type: functional;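 also: NIH-3T3 mouse fibroblasts cultured with fluconazole at 8 µg/mL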
[12] = molecular target: T3, Rac GTPase-activating protein 1 (Homo sapiens, UniProt Q9H0H5); test: blockers of MgcRacGAP-driven Rac1 GTP hydrolysis – biochemical, ADP Hunter fluorescence, primary and confirmatory, confirmation (AID 624330); assay type: functional
T3 sequence (Q9H0H5 whole entry): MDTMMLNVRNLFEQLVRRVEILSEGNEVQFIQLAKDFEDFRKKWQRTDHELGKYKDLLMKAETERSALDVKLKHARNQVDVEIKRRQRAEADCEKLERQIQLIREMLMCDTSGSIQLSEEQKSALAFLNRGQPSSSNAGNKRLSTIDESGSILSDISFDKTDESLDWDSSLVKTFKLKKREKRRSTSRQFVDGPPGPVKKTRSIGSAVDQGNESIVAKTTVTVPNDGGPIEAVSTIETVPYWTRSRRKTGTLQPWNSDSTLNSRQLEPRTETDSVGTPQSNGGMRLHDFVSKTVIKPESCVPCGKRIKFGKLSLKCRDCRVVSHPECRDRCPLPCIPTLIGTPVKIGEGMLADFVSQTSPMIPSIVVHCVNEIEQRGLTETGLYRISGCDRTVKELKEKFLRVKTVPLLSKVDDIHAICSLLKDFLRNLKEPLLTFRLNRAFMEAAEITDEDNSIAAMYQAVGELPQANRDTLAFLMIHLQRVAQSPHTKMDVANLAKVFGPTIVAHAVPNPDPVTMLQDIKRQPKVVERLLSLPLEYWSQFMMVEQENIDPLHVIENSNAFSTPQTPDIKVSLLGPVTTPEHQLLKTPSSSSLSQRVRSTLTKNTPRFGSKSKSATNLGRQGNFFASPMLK

[13] = molecular target: T4, Heat shock factor protein 1 (Mus musculus, UniProt P38532); test: enhancement of HSF1-driven luciferase signal – cell-based, NIH3T3, luminescence, dose retest, confirmation (AID 435004); assay type: functional;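 also: stress induced by proteasome inhibitor MG132 added 30 min after compound; luciferase reporter driven by HSF1 response element in NIH3T3 cells; actives raise luminescence as potentiators of the MG132 stress response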
T4 sequence (P38532 whole entry): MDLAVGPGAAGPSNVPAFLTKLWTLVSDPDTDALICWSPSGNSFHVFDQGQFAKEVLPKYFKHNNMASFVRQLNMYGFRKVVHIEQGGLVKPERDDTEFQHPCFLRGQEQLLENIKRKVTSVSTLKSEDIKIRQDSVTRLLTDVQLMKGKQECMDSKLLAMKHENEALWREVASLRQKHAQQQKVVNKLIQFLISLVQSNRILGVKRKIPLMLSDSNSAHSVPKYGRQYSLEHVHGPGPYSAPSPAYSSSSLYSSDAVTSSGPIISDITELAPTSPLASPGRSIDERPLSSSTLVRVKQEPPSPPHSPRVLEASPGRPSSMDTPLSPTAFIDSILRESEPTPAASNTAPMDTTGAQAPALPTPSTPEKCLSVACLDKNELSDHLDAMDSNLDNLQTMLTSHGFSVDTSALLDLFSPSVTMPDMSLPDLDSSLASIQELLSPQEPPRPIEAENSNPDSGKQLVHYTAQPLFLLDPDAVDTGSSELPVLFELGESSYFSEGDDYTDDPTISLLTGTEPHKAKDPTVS

[14] = Luminescence Cell-Based Dose Confirmation HTS to Identify Inhibitors of Platelet Dense Granule Release. [Related pubchem assays: 1663 (Primary HTS), 1678 (Summary of Project)]; assay type: functional
[15] = molecular target: Luciferin 4-monooxygenase (Photinus pyralis, UniProt P08659); test: inhibition of purified Photinus pyralis luciferase – biochemical, luminescence, dose response (AID 1891)
Sequence of Luciferin 4-monooxygenase (P08659 whole entry): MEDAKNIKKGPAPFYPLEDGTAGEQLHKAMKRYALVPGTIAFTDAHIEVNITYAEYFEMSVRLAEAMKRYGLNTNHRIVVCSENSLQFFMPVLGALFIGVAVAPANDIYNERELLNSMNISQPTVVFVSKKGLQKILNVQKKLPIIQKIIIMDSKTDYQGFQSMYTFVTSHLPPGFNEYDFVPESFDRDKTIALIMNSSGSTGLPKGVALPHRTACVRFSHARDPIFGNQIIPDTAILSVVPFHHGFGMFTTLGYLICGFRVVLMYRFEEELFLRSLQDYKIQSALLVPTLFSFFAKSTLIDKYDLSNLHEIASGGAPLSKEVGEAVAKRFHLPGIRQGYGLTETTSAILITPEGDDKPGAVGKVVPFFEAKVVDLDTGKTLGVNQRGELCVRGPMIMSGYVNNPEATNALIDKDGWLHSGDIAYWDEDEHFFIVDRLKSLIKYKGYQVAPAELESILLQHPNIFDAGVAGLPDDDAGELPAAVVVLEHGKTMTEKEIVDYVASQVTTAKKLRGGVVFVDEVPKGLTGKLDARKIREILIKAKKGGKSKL

[16] = molecular target: Cytochrome P450 2C19 (Homo sapiens, UniProt P33261); test: Cytochrome panel assay with activity outcomes. Panel member name: p450-cyp2c19 Compounds with AC50 equal or less than 10 uM are considered active; assay type: functional; conditions: read-out: AC50
Sequence of Cytochrome P450 2C19 (P33261 whole entry): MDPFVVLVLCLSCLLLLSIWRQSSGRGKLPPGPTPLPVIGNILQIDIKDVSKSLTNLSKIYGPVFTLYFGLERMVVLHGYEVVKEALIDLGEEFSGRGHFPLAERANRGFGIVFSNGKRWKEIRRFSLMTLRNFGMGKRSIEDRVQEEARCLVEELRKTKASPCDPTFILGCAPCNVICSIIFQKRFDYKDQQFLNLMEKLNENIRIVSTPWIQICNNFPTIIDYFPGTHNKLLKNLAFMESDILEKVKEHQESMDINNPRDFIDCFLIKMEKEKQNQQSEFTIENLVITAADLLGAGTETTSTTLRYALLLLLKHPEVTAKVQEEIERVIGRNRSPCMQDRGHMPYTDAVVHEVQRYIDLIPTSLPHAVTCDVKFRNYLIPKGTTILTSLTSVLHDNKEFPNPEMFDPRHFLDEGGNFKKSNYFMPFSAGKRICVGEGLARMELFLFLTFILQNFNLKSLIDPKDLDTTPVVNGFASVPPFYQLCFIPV

Sequence of FAD-linked sulfhydryl oxidase ALR (P55789 whole entry): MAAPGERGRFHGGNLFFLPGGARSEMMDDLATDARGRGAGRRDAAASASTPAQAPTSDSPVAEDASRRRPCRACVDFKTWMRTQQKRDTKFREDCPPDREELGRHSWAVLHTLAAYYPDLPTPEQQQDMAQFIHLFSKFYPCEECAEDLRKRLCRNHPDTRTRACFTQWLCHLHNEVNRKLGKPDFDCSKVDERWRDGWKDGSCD

Nc1ccc(-c2nc3ccccc3[nH]2)cc1
AC50 [1]: 1.3 µM (active)

CC1CCN(c2nc3ccc(C(=O)NCCCN4CCCCC4C)cc3s2)CC1 (stereo not drawn)
CC50 [2]: > 25 µM (active)

c1ccc2c(C[C@@H]3CNCCN3CC3CCCCC3)cccc2c1
IC50 [3]: > 20 µM (inactive)

CN(C)CCNC=C(C(=O)Nc1ccc(Cl)cc1Cl)C(=O)Nc1ccc(Cl)cc1Cl
EC50 [4]: > 150 µM (not active)
EC50 [5]: 6.32 µM (active)
EC50 [6]: 2.71 µM (active)
CC50 [2]: > 25 µM (active)
EC50 [7]: 26.4 µM (active)
EC50 [8]: 17.2 µM (active)
AC50 [9]: 6.84 µM (active)
IC50 [3]: > 20 µM (inactive)

O=C(NCC1CCCO1)c1cc2n(n1)C(C(F)(F)F)CC(c1ccc(Br)cc1)N2 (stereo not drawn)
EC50 [10]: > 38 µM (not active)
EC50 [11]: > 160 µM (inactive)

Cc1cccc(N2CCN(C(=O)C3CCN(S(=O)(=O)c4c(C)noc4C)CC3)CC2C)c1 (stereo not drawn)
AC50 [1]: 10.6 µM (active)

COc1ccc(CSc2[nH]c(C)nc2[N+](=O)[O-])cc1[N+](=O)[O-]
AC50 [1]: 0.02 µM (active)

Nc1ccc(N2CCN(c3ccc(F)cc3)CC2)cc1
AC50 [1]: 0.821 µM (active)
IC50 [12]: 18.2 µM (active)
EC50 [11]: 40.1 µM (active)

O=C(CSc1nnc(-c2ccc(F)cc2)c2ccccc12)Nc1ccccc1
EC50 [13]: 104 µM (active)

CCOC(=O)c1sc(NC(=O)CCN2CCC(C)CC2)c(C(=O)OCC)c1C
EC50 [13]: > 260 µM (inactive)

CCCc1cc(=O)oc2cc(OCC(=O)N3CCc4ccccc43)ccc12
EC50 [14]: > 112 µM (not active)
EC50 [15]: > 112 µM (not active)
AC50 [16]: 1 µM (inconclusive)

CC(C)CCNCC(=O)NC(c1ccccc1)c1ccccc1
EC50 [10]: > 38 µM (not active)
EC50 [11]: > 160 µM (inactive)

CCOc1cc(N2CCOCC2)c(OCC)cc1NC(=O)c1nc2nc(C)cc(C)n2n1
EC50 [10]: > 38 µM (not active)
EC50 [11]: > 160 µM (inactive)

C=C(C)COc1ccc(-c2[nH]nc(C)c2-c2ccccc2)c(O)c1
EC50 [5]: 16.4 µM (active)
EC50 [6]: 9.45 µM (active)
EC50 [10]: 2.67 µM (active)
EC50 [11]: 93.6 µM (active)

C#CCOCCOCCOCCNc1nc(N2CCOCC2)nc(N2CCN(C(=O)CCCCCCCCCCNC(=O)[C@H]([C@@H](C)CC)n3cc(CCCCN=C(N)N)nn3)CC2)n1
IC50 [3]: > 20 µM (inactive)

Cc1cccc(N2CCN(C(=O)C3CCCN(S(=O)(=O)c4c[nH]cn4)C3)CC2C)c1 (stereo not drawn)
AC50 [1]: 3.55 µM (active)
